# Data from US6613772B1, “Substituted 2-aryl-4-amino-chinazolines, method for the production and use thereof as medicaments” (Aventis Pharma Deutschland GmbH, priority 1997, dated 2003).
row,melting point [°C],SMILES
1,250,"COc1cc2nc(-c3ccc(C)cc3)nc(NCc3cccc([N+](=O)[O-])c3)c2cc1OC [Example 72, 2-(4-Methylphenyl)-4-((3-nitrophenylmethyl)amino)-6,7-dimethoxyquinazoline]"
2,205,"COc1ccccc1CCNc1nc(-c2ccc(C)cc2)nc2cc(OC)c(OC)cc12 [Example 73, 2-(4-Methylphenyl)-4-(2-(2-methoxyphenyl)ethylamino)-6,7-dimethoxyquinazoline]"
3,213,"COc1cc2nc(-c3ccc(C)cc3)nc(N3CCSCC3)c2cc1OC [Example 75, 2-(4-Methylphenyl)-4-thiomorpholino-6,7-dimethoxyquinazoline]"
4,216,"COc1cc2nc(-c3ccc(C)cc3)nc(N3CC[S+]([O-])CC3)c2cc1OC [Example 77, 2-(4-Methylphenyl)-4-(1-oxothiomorpholino)-6,7-dimethoxyquinazoline]"
5,223,"CCCN(CCC)c1nc(-c2ccc(Cl)cc2)nc2cc(OC)c(OC)cc12 [Example 81, 2-(4-Chlorophenyl)-4-dipropylamino-6,7-dimethoxyquinazoline]"
6,177,"COc1cc2nc(-c3ccc(C)cc3)nc(N3CC(C)OC(C)C3)c2cc1OC (centres unmarked) [Example 83, 2-(4-Methylphenyl)-4-(2,6-dimethylmorpholino)-6,7-dimethoxyquinazoline]"
7,162,"COCCCNc1nc(-c2ccc(C)cc2)nc2cc(OC)c(OC)cc12 [Example 84, 2-(4-Methylphenyl)-4-(3-methoxypropylamino)-6,7-dimethoxyquinazoline]"

# The remaining lines, values behind:
row,SMILES,melting point [°C]
1,"COc1cc2c(NCc3cccnc3)nc(-c3cc(C(F)(F)F)cc(C(F)(F)F)c3)nc2c(OC)c1OC [Example 65, 2-(3,5-Bistrifluoromethylphenyl)-4-((3-pyridylmethyl)amino)-6,7,8-trimethoxyquinazoline]",229
2,"COc1cc2c(N3CCSCC3)nc(-c3ccc(Cl)cc3)nc2c(OC)c1OC [Example 66, 2-(4-Chlorophenyl)-4-thiomorpholino-6,7,8-trimethoxyquinazoline]",174
3,"COc1cc2c(N3CC[S+]([O-])CC3)nc(-c3ccc(Cl)cc3)nc2c(OC)c1OC [Example 68, 2-(4-Chlorophenyl)-4-(1-oxothiomorpholino)-6,7,8-trimethoxyquinazoline]",198
4,"COc1cc2c(N3CCS(=O)(=O)CC3)nc(-c3ccc(Cl)cc3)nc2c(OC)c1OC [Example 69, 2-(4-Chlorophenyl)-4-(1,1-dioxothiomorpholino)-6,7,8-trimethoxyquinazoline]",241
5,"COc1cc2nc(-c3ccc(Cl)cc3)nc(N3CCSCC3)c2cc1OC [Example 74, 2-(4-Chlorophenyl)-4-thiomorpholino-6,7-dimethoxyquinazoline]",214
6,"COc1cc2nc(-c3ccc(Cl)cc3)nc(N3CC[S+]([O-])CC3)c2cc1OC [Example 76, 2-(4-Chlorophenyl)-4-(1-oxothiomorpholino)-6,7-dimethoxyquinazoline]",226
7,"COc1cc2c(N3CCN(c4ccccn4)CC3)nc(-c3ccc(Cl)cc3)nc2c(OC)c1OC [Example 78, 2-(4-Chlorophenyl)-4-(4-(2-pyridyl)piperazino)-6,7,8-trimethoxyquinazoline]",141
8,"CCCN(CCC)c1nc(-c2ccc(Cl)cc2)nc2c(OC)c(OC)c(OC)cc12 [Example 80, 2-(4-Chlorophenyl)-4-dipropylamino-6,7,8-trimethoxyquinazoline]",109
9,"CCCN(CCC)c1nc(-c2cc(C(F)(F)F)cc(C(F)(F)F)c2)nc2c(OC)c(OC)c(OC)cc12 [Example 82, 2-(3,5-Bistrifluoromethylphenyl)-4-dipropylamino-6,7,8-trimethoxyquinazoline]",121
10,"COc1cc2nc(-c3ccc(Cl)cc3)nc(N3CC(C)OC(C)C3)c2cc1OC (centres unmarked) [Example 85, 2-(4-Chlorophenyl)-4-(2,6-dimethylmorpholino)-6,7-dimethoxyquinazoline]",165
